Experimental data as given in paper PMC8669712, “G Protein-Coupled Receptor GPR35 Suppresses Lipid Accumulation in Hepatocytes” (ACS Pharmacology & Translational Science, 2021).
“And” between values parts separate entries of the source, which are not always exact repeats. Identical values can stand only once.

Key:
[1] = tested on: high-fat diet-induced wild-type mice; design: method as in PMID 31189299; settings: oral, 1 mg/kg, final 7 days of a 7-week-diet exposure; cited from earlier work
[2] = tested on: primary mouse hepatocytes; design: method as in Nam et al. 37; settings: ref Nam et al. 37; read-out: EC50 to limit lipid accumulation in mouse hepatocytes; cited from earlier work
[3] = tested on: GPR35a-reconstituted clone 27 HepG2 cells; test: Oil Red O lipid accumulation in GPR35a-reconstituted clone 27 cells; format: cell-based, human; settings: clone 27, 72 h
Experimental: Briefly, CRISPR KO cells were transiently transfected 24 h with the human GPR35a expression vector using LipofectAMINE 3000 reagent, according to the manufacturer’s instructions. […] Alternatively, after 24 h transfection, cells were seeded onto a 12-well plate (1 × 10^5 cells/well) for 24 h at 37 °C. Then, cells were incubated with T0901317 and/or GPR35 agonists (in MEM containing 5% FBS) for 72 h. After the drug treatment, cells were stained with Oil Red O to examine the levels of lipid accumulation. Each experiment was repeated at least three times.
Lipid accumulation was measured by Oil Red O staining. A working solution of Oil Red O was prepared, as described with modification.[46] After drug treatment, cells were washed with PBS and fixed with formalin solution for 1 h at 4 °C. Then, cells were stained with Oil Red O working solution for 10 min at room temperature. After PBS washing, Oil Red O was extracted from cells using 150 μl of isopropanol and OD510 nm measured. […] These cells were then stained with Hoechst 33342 (1 μg/mL) and the fluorescence intensity of Hoechst (represents the DNA content in cells) was measured using a CLARIOstar plate reader (BMG LABTECH). Oil Red O accumulation was corrected for differences in DNA content and expressed as relative absorbency, taking the control condition (treated with vehicle only) as 1.

[4] = tested on: hepatocytes from hGPR35a-HA-expressing mice; test: Label-free cellular impedance assay in hepatocytes from hGPR35a-HA-expressing mice; format: cell-based, mouse; settings: lodoxamide 1 × 10^–7 M
HepG2 cells = test: Label-free cellular impedance assay (xCELLigence) in HepG2 cells; format: cell-based, human
Experimental: HepG2 cells were seeded onto xCELLigence E plates (2 × 10^4 cells/well) and incubated for 24 h at 37 °C. To evaluate GPR35 activation and its downstream G protein signaling, HepG2 cells or primary mouse hepatocytes were exposed to GPR35 antagonists or G protein inhibitors 1 h (overnight for Pertussis toxin) prior to GPR35 agonist stimulation. After the addition of GPR35 agonist or vehicle control, the impedance (represented as “cell index”) was recorded every 30 s over a 2 h period using xCELLigence RTCA (Agilent). Each experiment was repeated at least three times.

[5] = tested on: GPR35 knock-out clones of HepG2 cells; test: Oil Red O lipid accumulation in GPR35 knock-out clones of HepG2 cells; format: cell-based, human; settings: lodoxamide 1 × 10^–6 M or 1 × 10^–5 M
Experimental: Human hepatocellular carcinoma HepG2 cells were grown in Minimum Essential Medium (MEM) supplemented with 10% fetal bovine serum (FBS), 2 mM L-glutamine, 1× non-essential amino acid, 1 mM sodium pyruvate, and 1× penicillin/streptomycin. Materials for cell culture were all from Sigma-Aldrich (St. Louis, MO) or Thermo Fisher Scientific (Waltham, MA). Cells were incubated in a humidified CO2 incubator at 37 °C. Experiments were performed when cell confluence reached 80%. Cells were seeded onto a 12-well plate (1 × 10^5 cells/well) for 24 h prior to drug treatment. […] Expression of full-length mRNA from the GPR35 gene was eliminated using a dual synthetic gRNA/RNP approach[43] with one guide cutting the intron and one in the exon region to generate a nonfunctional GPR35 protein. The gRNAs were designed with the CRISPR Finder (Welcome Sanger Institute). […] Transfected cells were plated and analyzed for editing efficiency 24-48 h after electroporation. […] To further quantify and capture the genomic DNA deletion, PCR primers listed in Table S1 were designed to amplify the genomic DNA surrounding the target site. […] The amplified PCR products were subjected to paired-end sequencing using NextSeq500 from Illumina using paired-end chemistry with a 150-bp read length. […] The impedance was recorded using xCELLigence RTCA. […] Lipid accumulation was measured by Oil Red O staining.

human GPR35a = human GPR35a (Homo sapiens, UniProt Q9HC97); test: β-arrestin-based interaction assay, agonist potency at human GPR35a; format: cell-based
Sequence of human GPR35a (Q9HC97 whole entry): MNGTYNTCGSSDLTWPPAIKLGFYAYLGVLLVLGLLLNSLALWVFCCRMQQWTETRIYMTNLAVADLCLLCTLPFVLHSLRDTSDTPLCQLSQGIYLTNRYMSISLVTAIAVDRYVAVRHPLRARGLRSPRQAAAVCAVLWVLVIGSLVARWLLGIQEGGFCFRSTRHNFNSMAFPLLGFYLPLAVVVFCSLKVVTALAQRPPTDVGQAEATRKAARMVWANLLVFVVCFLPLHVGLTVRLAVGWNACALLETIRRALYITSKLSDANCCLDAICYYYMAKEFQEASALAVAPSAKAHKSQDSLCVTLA

mouse GPR35 = mouse GPR35 (Mus musculus, UniProt Q9ES90); test: β-arrestin-based interaction assay, agonist potency at mouse GPR35; format: cell-based
Sequence of mouse GPR35 (Q9ES90 whole entry): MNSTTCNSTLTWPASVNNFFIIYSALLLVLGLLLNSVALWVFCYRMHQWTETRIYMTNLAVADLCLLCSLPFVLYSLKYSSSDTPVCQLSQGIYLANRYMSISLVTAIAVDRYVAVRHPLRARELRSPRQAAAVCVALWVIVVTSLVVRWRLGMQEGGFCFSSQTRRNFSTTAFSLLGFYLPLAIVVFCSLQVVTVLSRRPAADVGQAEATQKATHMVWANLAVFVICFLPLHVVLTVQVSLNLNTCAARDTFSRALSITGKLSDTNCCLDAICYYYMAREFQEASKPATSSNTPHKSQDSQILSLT

ratio (log) (H/M) (human GPR35a; log ratio of potency at human GPR35a over mouse GPR35): 2.66 ± 0.05 | EC50 (human GPR35a; β-arrestin-based interaction assay, read-out: human GPR35a, pEC50 (converted)): 4.17 nM | fold lower potency at mouse GPR35 than at human GPR35 (mouse GPR35; mouse versus human GPR35): ~450 fold and ~500 fold | EC50 (mouse GPR35; β-arrestin-based interaction assay, read-out: mouse GPR35, pEC50 (converted)): 1910 nM
SMILES: N#Cc1cc(NC(=O)C(=O)O)c(Cl)c(NC(=O)C(=O)O)c1 [lodoxamide, 2-[2-chloro-5-cyano-3-(oxaloamino)anilino]-2-oxoacetic acid]
effect of treatment in high-fat diet-induced wild-type mice [1]: beneficial effects | EC50 [2]: 6.1 nM | lipid accumulation induced by T0901317 in GPR35a-reconstituted cells [3]: again able to prevent the lipid accumulation | cellular impedance response in hepatocytes from hGPR35a-HA-expressing mice [4]: time-dependent increase in cellular impedance | impedance signal in parental HepG2 cells (HepG2 cells; 1 × 10^–5 M): produced positive signals | time for the impedance signal to reach a plateau (HepG2 cells; HepG2 cells, lodoxamide 1 × 10^–8 M): ≤ 5 min | suppression of the effect of T0901317 on lipid accumulation in GPR35 knock-out clones [5]: unable to suppress the effect of T0901317
